Assay results taken from patent publication US10759754B2, “Aminobenzoic acid derivatives for use as anti-inflammatory agents, anti-metastatic agents and/or anticancer agents” (3R VALO, S.E.C., priority 2016, dated 2020).
“Also recorded” adds a separate entry of the source.

Assays:
NFκB = experiment: NFκB-responsive luciferase assay in MB49-I cells; type: cell-based, murine; conditions: 50 μM
Text: Luciferase assay. To assess the transcriptional activity of NFκB in response to TNFα, MB49-I cells cultured in monolayers (7.5×10^4 cells/well in 24-well plates) were transiently transfected with an expression vector allowing the transcription of the firefly luciferase reporter gene under the control of CMV promoter and tandem repeats of the NFκB transcriptional response element. The luciferase gene encodes a 61-kDa enzyme that oxidizes D-luciferin in the presence of ATP, oxygen, and Mg^++, yielding a […] product that can be quantified by measuring the released light. Transfection was performed using Opti-MEM reduced serum media and Lipofectamine 2000 (Thermo Fisher Scientific). Then, MB49-I cells were pretreated for 30 min with vehicle (DMSO) and compound 4 (at 10 μM or 30 μM); and then washed and recovered after 24 h of activation with 10 ng/mL or 50 ng/mL TNFα. Cell lysates were mixed with Luciferase assay reagent (a mixture of luciferine, coenzyme A, ATP and Mg^2+) and the light produced was measured using a luminometer.

human UBC T24 cells = experiment: Microinvasion assay (matrigel in Boyden chamber), M1-induced T24 cell invasion; type: cell-based
Procedure: Microinvasion assays. Invasion was measured by assessment of human UBC T24 cell migration rate through an artificial basement membrane in a modified Boyden chamber (HTS Transwell System). Briefly, the membrane consisted of a polycarbonate filter with 0.4 μm pores diameter and was coated on ice with Matrigel (BD Biosciences) diluted 1:2 (v/v) in serum-free culture media. T24 cells (50×10^3 cells) were seeded into the Matrigel coat in the upper well of the chamber, while polarized M1 macrophages (50×10^3 cells) were seeded in the lower well. The polycarbonate filter with 0.4 μm pores diameter is too small to left the cells move to the bottom of the lower wells. Thus, non-invading cells into the matrigel coat were removed and cells that migrated down to the polycarbonate filter were stained with Hoescht 33258 dye after a 48-h incubation period, visualized by fluorescence microscopy and counted.

[1] = system: TNFα/NFκB signaling pathway; experiment: Western blot of TNFα/NFκB signaling in MB49-I cells; type: cell-based, murine; conditions: doses as lower as 10 μM
Procedure: (§1) Cell signaling studies: THP1-derived human macrophages (750×10^3 cells/mL) and MB49-I cells (500×10^3 cells/mL) were pretreated for 30 min with vehicle (DMSO), compounds 4 and 5, at 10, 25 or 50 μM; and then washed and recovered immediately (t=0 min) or after 30 min of activation with 50 U/mL IFNγ, 25 ng/mL IL6, or 10 ng/mL TNFα. Cell lysates were prepared and analyzed by immunoblotting as described.^21-23,25 Briefly, protein samples were resolved by SDS-PAGE under reducing conditions and transferred onto a PVDF membrane. Blots were first probed with rabbit polyclonal antibodies against phospho-STAT1 (pSTAT1), pSTAT3, or p-IκB (all at 1:2000) overnight at 4° C. Blots were then incubated with HRP-conjugated goat anti-rabbit IgG Ab (1:3000) for 1 h at room temperature. The same blots were stripped and then probed with anti-STAT1 or anti-STAT3 Abs (both at 1:1000). In both cases, probed molecules were visualized using an enhancement chemiluminescence detection kit (Thermo Fisher Scientific).

MB49 tumors = experiment: Ectopic UBC model, non-muscle invasive MB49 tumors in male mice; type: in vivo; conditions: i.p. 90 and 150 μM
Procedure: Ectopic UBC model. Male C57BL/6J mice (6-8 weeks old), each weighing 15-18 g, were used for the experiments (supplied by Charles River). The mice were housed with free access to food and water on a 12:12 h light:dark cycle with the room temperature maintained at 21° C. MB49 cells, MB49-I cells, and iNOS-deficient MB49-I cells ([…] in 100 μL PBS) were injected subcutaneously (s.c.) into the right flank of the mice. Growth rates of the s.c. tumors were monitored. The size of tumors was determined every 3 days for 24-28 days using a digital caliper and by measuring luciferin luminescence at days 15 and 25 using the IVIS imaging system. A blinded observer measured tumor length and width. The volume of the tumor was calculated from the formula: Length×width2×0.52, where length and width were tumor diameters measured with calipers in mutually perpendicular directions. At a tumor size of approximately 10 mm^3 the mice were divided into different groups. A control group received PBS as treatment. As indicated, other groups were treated at different doses (90, 150 or 300 μM) with an intraperitoneal (i.p.) injection of compounds 4 or 8 every 3-4 days for 18-20 days.^24,27

CD40 = experiment: Flow cytometry of CD40 surface antigen in IFNγ-activated human macrophages; type: cell-based; conditions: compound 4 at 10 μM, compound 5 at 25 μM
Procedure: Surface antigen expression analysis. To study membrane receptor expression, THP1-derived human macrophages (750×10^4 cells/mL) were pretreated for 3 h with DMSO or compounds 4 and 5, and then left untreated (control) or treated for 48 h with 50 U/mL IFNγ. The expression level of MHC-II and CD40 was evaluated by flow cytometry as described.^21-23

STAT1 = experiment: Western blot of phosphorylated STAT1 in IFNγ-activated human macrophages; type: cell-based; conditions: human macrophages pretreated 30 min at 10 and 50 μM; 30 min activation with 50 U/mL IFNγ
Procedure: as §1

[2] = system: macrophage-like J774A.1 cells; experiment: IFNγ/TNFα-induced NO production (Griess) in J774A.1 cells; type: cell-based, murine; conditions: pretreatment then IFNγ and TNFα
Procedure: Evaluation of NO and Urea production by chemical methods. The MB49-I cells and the J774A.1 cells (25×10^3 cells/well) were grown and pretreated, as indicated, with various anti-inflammatory derivatives, precursors and mono-functional derivatives for a period of 3 h. Afterwards the cells were washed twice with 10% FBS RPMI-1640 and then activated to produce NO for a period of 24 h with cytokines INFγ and TNFα. NO production was measured using the Griess reagent method as previously described.^27 This method involves the detection of nitrite ions (NO2^−) formed by the spontaneous oxidation of NO under physiological conditions. According the manufacture procedure (Life Technologies; # G-7921), equal volumes of sulfanilic acid and N-(1-naphthyl)ethylenediamine are mixed together to form the Griess reagent. In the presence of NO2^−, sulfanilic acid is converted to a diazonium salt, which in turn is coupled to N-(1-naphthyl)ethylenediamine to produce a pink coloration that is measured with a spectrophotometer (Biotek, synergy HT) at 548 nm. In the same manner, urea synthesis through arginase-1 activity was measured using commercially available kit.

MB49 cells = experiment: Relative cell viability of MB49 cells 24-hour post treatment; type: cell-based, murine; conditions: 3 h treatment, 0-50 μM
Procedure: Evaluation of cell proliferation by the MTT assay. […] Cells were pretreated for a period of 3 h with vehicle (DMSO) or derivatives 1 and 1A at 0, 10, 25, 37.5, and 50 μM, and then incubated for 24 h in the absence or the presence of INFγ and TNFα. At the end of the culture period, 10 μL of 5 mg/mL methylthiazolyldiphenyl-tetrazolium bromide (MTT) solution was added to each well. After a 3-h incubation period with MTT reagent, 100 μL of MTT solubilization buffer (10% SDS in 10 mM HCl) was added and plates were placed overnight in the cell incubator before absorbance measure. The optical density was read at 580 nm using the Microplate Reader Manager (from Bio-Rad Laboratories).

CC(C)(C)OC(=O)NNC(=O)c1ccc(N2C(=O)C=CC2=O)cc1 [Compound 4, N′-[4-(2,5-dioxo-2,5-dihydro-pyrrol-1-yl)-benzoyl]-hydrazine carboxylic acid tert-butyl ester]
NFκB activation (luciferase assay) (NFκB): efficiently inhibited | M1-induced human UBC T24 cell invasion (human UBC T24 cells): efficiently inhibited | TNFα/NFκB signaling pathway (Western blot) [1]: inhibit; also recorded: efficiently inhibited | size of subcutaneously implanted MB49 tumors (MB49 tumors): significant reduction; also recorded: significantly reduce | IFNγ-induced CD40 expression (CD40): effective in reducing; also recorded: efficiently inhibited | IFNγ-induced STAT1 activation (ratio of phosphorylated/no phosphorylated proteins) (STAT1): decreased; also recorded: efficiently inhibited | combined IFNγ/TNFα-induced NO synthesis [2]: effective in reducing; also recorded: efficiently inhibited | relative cell viability / cell survival (MB49 cells): stopping cell proliferation
